# Data taken from patent publication US10988523B2, “Modified lipidated Relaxin B chain peptides and their therapeutic use” (Sanofi, priority 2018, dated 2021).
# *1 amine or outer side, *2 acyl side, *3 side chain or, on linkers, in order; H or OH if unused. Where a SMILES comes first, the peptide text is derived from it. Side-chain parts run from the residue outwards. [ ]: non-standard residue; d: D form. The star is where a group is joined. PEG28 = NCCOCCOCCOCCOCCOCCOCCOCCOCCOCCOCCOCCOCCOCCOCCOCCOCCOCCOCCOCCOCCOCCOCCOCCOCCOCCOCCOCCOCCC(=O)O; PEG24 = NCCOCCOCCOCCOCCOCCOCCOCCOCCOCCOCCOCCOCCOCCOCCOCCOCCOCCOCCOCCOCCOCCOCCOCCOCCC(=O)O; PEG12 = NCCOCCOCCOCCOCCOCCOCCOCCOCCOCCOCCOCCOCCC(=O)O; γGlu = O=C(O)[C@H](CCC(=O)[*:2])N[*:1]; Stearoyl = CCCCCCCCCCCCCCCCCC(=O)*; Palmitoyl = CCCCCCCCCCCCCCCC(=O)*; αMeK = C[C@](N)(CCCCN)C(=O)O; Nle = CCCC[C@H](N)C(=O)O; AEEA = NCCOCCOCC(=O)O; Aib = CC(C)(N)C(=O)O
# Target: T1, RXFP1 (Homo sapiens, UniProt Q9HBX9)
# T1 construct: OVCAR5 cells expressing endogenous RXFP1; endogenous in cells; host or cells: OVCAR5 cells
# T1 sequence (Q9HBX9 1-757): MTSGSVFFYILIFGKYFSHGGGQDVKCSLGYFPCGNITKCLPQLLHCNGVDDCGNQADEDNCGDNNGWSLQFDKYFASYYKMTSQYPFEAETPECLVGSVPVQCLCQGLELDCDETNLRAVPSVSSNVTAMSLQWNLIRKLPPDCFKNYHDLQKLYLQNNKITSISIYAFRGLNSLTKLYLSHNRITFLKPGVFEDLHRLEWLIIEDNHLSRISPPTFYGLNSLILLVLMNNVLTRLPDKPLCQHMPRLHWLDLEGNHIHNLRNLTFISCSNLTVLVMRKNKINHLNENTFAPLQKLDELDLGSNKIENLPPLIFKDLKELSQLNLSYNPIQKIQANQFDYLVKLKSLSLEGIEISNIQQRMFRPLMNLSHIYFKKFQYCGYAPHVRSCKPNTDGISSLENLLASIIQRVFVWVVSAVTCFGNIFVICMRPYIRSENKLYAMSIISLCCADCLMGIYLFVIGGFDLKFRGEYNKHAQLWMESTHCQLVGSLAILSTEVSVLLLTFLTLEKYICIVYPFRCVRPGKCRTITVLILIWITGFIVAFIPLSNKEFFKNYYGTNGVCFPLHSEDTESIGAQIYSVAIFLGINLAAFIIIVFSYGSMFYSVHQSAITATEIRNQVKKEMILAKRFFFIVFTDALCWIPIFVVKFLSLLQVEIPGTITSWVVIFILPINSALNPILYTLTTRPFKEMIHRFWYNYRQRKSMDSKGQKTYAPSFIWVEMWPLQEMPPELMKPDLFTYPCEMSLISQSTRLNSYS
# Test: OVCAR5 cAMP assay (HTRF), RXFP1 agonist activity
# Type: cell-based
# Details: for EC50: OVCAR5 cells, cAMP HTRF, read-out: EC50 (nM), OVCAR 5 cells (cAMP); for Emax: OVCAR-5, maximal cAMP relative to H2-relaxin maximum (100%), read-out: EMax, OVCAR 5 cells (cAMP)
# Procedure, shortened: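 cAMP accumulation readout: after 1 mM IBMX for 40 min, endogenous-RXFP1 OVCAR5 cells got rising peptide concentrations without FCS, 30 min, 37° C, then lysis with HTRF cAMP reagents. Nonlinear regression gave EC50; Emax expressed relative to H2-relaxin maximum, same occasion.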
SMILES,EC50 [nM],Emax [%]
CCCCCCCCCCCCCCCC(=O)N[C@@H](CCC(=O)N[C@@H](CCC(=O)N[C@@H](CCC(=O)N[C@@H](CCC(=O)NCCCC[C@H](NC(=O)CCOCCOCCOCCOCCOCCOCCOCCOCCOCCOCCOCCOCCNC(=O)[C@H](CCCCNC(C)=O)NC(=O)[C@H](CCCCN)NC(=O)[C@H](CCCNC(=N)N)NC(=O)[C@](C)(CCCCN)NC(=O)[C@H](CO)NC(=O)[C@H](Cc1c[nH]c2ccccc12)NC(=O)[C@@H](NC(=O)[C@H](CO)NC(=O)[C@H](CCCC)NC(=O)CNC(=O)[C@H](CCC(=O)O)NC(=O)C(C)(C)NC(=O)C(C)(C)NC(=O)[C@@H](NC(=O)[C@H](CCCCNC(C)=O)NC(=O)[C@H](C)NC(=O)[C@H](CCCNC(=N)N)NC(=O)[C@@H](NC(=O)[C@H](CCCCN)NC(=O)[C@H](CCC(=O)O)NC(=O)[C@H](CCCNC(=N)N)NC(=O)CNC(=O)[C@H](CCC(=O)O)NC(=O)[C@H](CC(C)C)NC(C)=O)C(C)C)[C@@H](C)CC)[C@@H](C)O)C(N)=O)C(=O)O)C(=O)O)C(=O)O)C(=O)O [compound 43] (Ac-LEGREKVRAK(Ac)I[Aib][Aib]EG[Nle]STWS[αMeK]RKK(Ac)[PEG12]K([γGlu-γGlu-γGlu-γGlu-Palmitoyl])-NH2),0.14,106
CCCCCCCCCCCCCCCC(=O)N[C@@H](CCC(=O)N[C@@H](CCC(=O)N[C@@H](CCC(=O)NCCOCCOCC(=O)NCCOCCOCC(=O)NCCOCCOCC(=O)NCCCC[C@H](NC(=O)[C@H](CCCCNC(C)=O)NC(=O)[C@H](CCCCN)NC(=O)[C@H](CCCNC(=N)N)NC(=O)C(C)(C)NC(=O)[C@H](CO)NC(=O)[C@H](Cc1ccc(O)cc1)NC(=O)[C@@H](NC(=O)[C@H](CO)NC(=O)[C@H](CCC(N)=O)NC(=O)CNC(=O)[C@H](CCC(=O)O)NC(=O)C(C)(C)NC(=O)C(C)(C)NC(=O)[C@@H](NC(=O)[C@H](CCCCNC(C)=O)NC(=O)[C@H](C)NC(=O)[C@H](CCCNC(=N)N)NC(=O)[C@@H](NC(=O)[C@H](CCCCN)NC(=O)[C@H](CCC(=O)O)NC(=O)[C@H](CCCNC(=N)N)NC(=O)CNC(=O)[C@H](CCC(=O)O)NC(=O)[C@H](CC(C)C)NC(C)=O)C(C)C)[C@@H](C)CC)[C@@H](C)O)C(N)=O)C(=O)O)C(=O)O)C(=O)O [compound 44] (Ac-LEGREKVRAK(Ac)I[Aib][Aib]EGQSTYS[Aib]RKK(Ac)K([AEEA-AEEA-AEEA-γGlu-γGlu-γGlu-Palmitoyl])-NH2),–,75
CCCCCCCCCCCCCCCCCC(=O)N[C@@H](CCC(=O)N[C@@H](CCC(=O)N[C@@H](CCC(=O)NCCCC[C@H](NC(=O)CCOCCOCCOCCOCCOCCOCCOCCOCCOCCOCCOCCOCCNC(=O)[C@H](CCCCNC(C)=O)NC(=O)[C@H](CCCCN)NC(=O)[C@H](CCCNC(=N)N)NC(=O)C(C)(C)NC(=O)[C@H](CO)NC(=O)[C@H](Cc1ccc(O)cc1)NC(=O)[C@@H](NC(=O)[C@H](CO)NC(=O)[C@H](CCCC)NC(=O)CNC(=O)[C@H](CCC(=O)O)NC(=O)C(C)(C)NC(=O)C(C)(C)NC(=O)[C@@H](NC(=O)[C@H](CCCCNC(C)=O)NC(=O)[C@H](C)NC(=O)[C@H](CCCNC(=N)N)NC(=O)[C@@H](NC(=O)[C@H](CCCCN)NC(=O)[C@H](CCC(=O)O)NC(=O)[C@H](CCCNC(=N)N)NC(=O)CNC(=O)[C@H](CCC(=O)O)NC(=O)[C@H](CC(C)C)NC(C)=O)C(C)C)[C@@H](C)CC)[C@@H](C)O)C(N)=O)C(=O)O)C(=O)O)C(=O)O [compound 46] (Ac-LEGREKVRAK(Ac)I[Aib][Aib]EG[Nle]STYS[Aib]RKK(Ac)[PEG12]K([γGlu-γGlu-γGlu-Stearoyl])-NH2),0.61,79
CCCCCCCCCCCCCCCC(=O)N[C@@H](CCC(=O)N[C@@H](CCC(=O)N[C@@H](CCC(=O)NCCCC[C@H](NC(=O)CCOCCOCCOCCOCCOCCOCCOCCOCCOCCOCCOCCOCCOCCOCCOCCOCCOCCOCCOCCOCCOCCOCCOCCOCCNC(=O)[C@H](CCCCN)NC(=O)[C@H](CCCNC(=N)N)NC(=O)C(C)(C)NC(=O)[C@H](CO)NC(=O)[C@H](Cc1c[nH]c2ccccc12)NC(=O)[C@@H](NC(=O)[C@H](CO)NC(=O)[C@H](CCSC)NC(=O)CNC(=O)[C@H](CCC(=O)O)NC(=O)C(C)(C)NC(=O)C(C)(C)NC(=O)[C@@H](NC(=O)[C@H](CCC(N)=O)NC(=O)[C@H](C)NC(=O)[C@H](CCCNC(=N)N)NC(=O)[C@@H](NC(=O)[C@H](CCCCN)NC(=O)[C@H](CCC(=O)O)NC(=O)[C@H](CCCNC(=N)N)NC(=O)CNC(=O)[C@H](CCC(=O)O)NC(=O)[C@H](CC(C)C)NC(C)=O)C(C)C)[C@@H](C)CC)[C@@H](C)O)C(N)=O)C(=O)O)C(=O)O)C(=O)O [compound 47] (Ac-LEGREKVRAQI[Aib][Aib]EGMSTWS[Aib]RK[PEG24]K([γGlu-γGlu-γGlu-Palmitoyl])-NH2),–,100
CCCCCCCCCCCCCCCCCC(=O)N[C@@H](CCC(=O)N[C@@H](CCC(=O)N[C@@H](CCC(=O)NCCCC[C@H](NC(=O)CCOCCOCCOCCOCCOCCOCCOCCOCCOCCOCCOCCOCCOCCOCCOCCOCCOCCOCCOCCOCCOCCOCCOCCOCCOCCOCCOCCOCCNC(=O)[C@H](CCCCN)NC(=O)[C@H](CCCCN)NC(=O)[C@H](CCCNC(=N)N)NC(=O)C(C)(C)NC(=O)[C@H](CO)NC(=O)[C@H](Cc1c[nH]c2ccccc12)NC(=O)[C@@H](NC(=O)[C@H](CO)NC(=O)[C@H](CCCC)NC(=O)CNC(=O)[C@H](CCC(=O)O)NC(=O)C(C)(C)NC(=O)C(C)(C)NC(=O)[C@@H](NC(=O)[C@H](CCCCNC(C)=O)NC(=O)[C@H](C)NC(=O)[C@H](CCCNC(=N)N)NC(=O)[C@@H](NC(=O)[C@H](CCCCN)NC(=O)[C@H](CCC(=O)O)NC(=O)[C@H](CCCNC(=N)N)NC(=O)CNC(=O)[C@H](CCC(=O)O)NC(=O)[C@H](CC(C)C)NC(C)=O)C(C)C)[C@@H](C)CC)[C@@H](C)O)C(N)=O)C(=O)O)C(=O)O)C(=O)O [compound 48] (Ac-LEGREKVRAK(Ac)I[Aib][Aib]EG[Nle]STWS[Aib]RKK[PEG28]K([γGlu-γGlu-γGlu-Stearoyl])-NH2),–,99
CCCCCCCCCCCCCCCCCC(=O)N[C@@H](CCC(=O)N[C@@H](CCC(=O)N[C@@H](CCC(=O)NCCCC[C@H](NC(=O)CCOCCOCCOCCOCCOCCOCCOCCOCCOCCOCCOCCOCCOCCOCCOCCOCCOCCOCCOCCOCCOCCOCCOCCOCCOCCOCCOCCOCCNC(=O)[C@H](CCCCNC(C)=O)NC(=O)[C@H](CCCCN)NC(=O)[C@H](CCCNC(=N)N)NC(=O)C(C)(C)NC(=O)[C@H](CO)NC(=O)[C@H](Cc1c[nH]c2ccccc12)NC(=O)[C@@H](NC(=O)[C@H](CO)NC(=O)[C@H](CCCC)NC(=O)CNC(=O)[C@H](CCC(=O)O)NC(=O)C(C)(C)NC(=O)C(C)(C)NC(=O)[C@@H](NC(=O)[C@H](CCCCNC(C)=O)NC(=O)[C@H](C)NC(=O)[C@H](CCCNC(=N)N)NC(=O)[C@@H](NC(=O)[C@H](CCCCN)NC(=O)[C@H](CCC(=O)O)NC(=O)[C@H](CCCNC(=N)N)NC(=O)CNC(=O)[C@H](CCC(=O)O)NC(=O)[C@H](CC(C)C)NC(C)=O)C(C)C)[C@@H](C)CC)[C@@H](C)O)C(N)=O)C(=O)O)C(=O)O)C(=O)O [compound 49] (Ac-LEGREKVRAK(Ac)I[Aib][Aib]EG[Nle]STWS[Aib]RKK(Ac)[PEG28]K([γGlu-γGlu-γGlu-Stearoyl])-NH2),–,106
CCCCCCCCCCCCCCCC(=O)NCCOCCOCC(=O)NCCCC[C@H](NC(=O)[C@H](CCCCN)NC(=O)[C@H](CCCNC(=N)N)NC(=O)C(C)(C)NC(=O)[C@H](CO)NC(=O)[C@H](Cc1c[nH]c2ccccc12)NC(=O)[C@@H](NC(=O)[C@H](CO)NC(=O)[C@H](CCCC)NC(=O)CNC(=O)[C@H](CCC(=O)O)NC(=O)C(C)(C)NC(=O)C(C)(C)NC(=O)[C@@H](NC(=O)[C@H](CCC(N)=O)NC(=O)[C@H](C)NC(=O)[C@H](CCCNC(=N)N)NC(=O)[C@@H](NC(=O)[C@H](CCCCN)NC(=O)[C@H](CCC(=O)O)NC(=O)[C@H](CCCNC(=N)N)NC(=O)CNC(=O)[C@H](CCC(=O)O)NC(=O)[C@H](CC(C)C)NC(C)=O)C(C)C)[C@@H](C)CC)[C@@H](C)O)C(N)=O [compound 50] (Ac-LEGREKVRAQI[Aib][Aib]EG[Nle]STWS[Aib]RKK([AEEA-Palmitoyl])-NH2),–,95
CCCCCCCCCCCCCCCCCC(=O)NCCOCCOCC(=O)NCCOCCOCC(=O)NCCCC[C@H](NC(=O)[C@H](CCCCNC(C)=O)NC(=O)[C@H](CCCCN)NC(=O)[C@H](CCCNC(=N)N)NC(=O)C(C)(C)NC(=O)[C@H](CO)NC(=O)[C@H](Cc1c[nH]c2ccccc12)NC(=O)[C@@H](NC(=O)[C@H](CO)NC(=O)[C@H](CCCC)NC(=O)CNC(=O)[C@H](CCC(=O)O)NC(=O)C(C)(C)NC(=O)C(C)(C)NC(=O)[C@@H](NC(=O)[C@H](CCC(N)=O)NC(=O)[C@H](C)NC(=O)[C@H](CCCNC(=N)N)NC(=O)[C@@H](NC(=O)[C@H](CCCCN)NC(=O)[C@H](CCC(=O)O)NC(=O)[C@H](CCCNC(=N)N)NC(=O)CNC(=O)[C@H](CCC(=O)O)NC(=O)[C@H](CC(C)C)NC(C)=O)C(C)C)[C@@H](C)CC)[C@@H](C)O)C(N)=O [compound 51] (Ac-LEGREKVRAQI[Aib][Aib]EG[Nle]STWS[Aib]RKK(Ac)K([AEEA-AEEA-Stearoyl])-NH2),–,100
